Test results from ChEMBL document CHEMBL1201862, “PubChem BioAssay data set” (2004).
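Growth conditions: 96-well plates. Treatment: test compound, 48 hours, 5 concentrations. Analysis: linear interpolation between bracketing concentrations; unreached endpoints set to highest concentration. The concentration for 50% growth inhibition is given as GI50.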 Calls of active or inactive are those of the source. Rule as the data show it: active = GI50 up to about 1.1 µM and inactive = higher.

How the values were obtained:
Assay in all cases: inhibition of tumour cell growth, NCI panel, 48 h
A498 = system: A498
SF-295 = system: SF-295
SK-MEL-2 = system: SK-MEL-2
M19-MEL = system: M19-MEL
LOX IMVI = system: LOX IMVI
UACC-62 = system: UACC-62
NCI-H460 = system: NCI-H460
HL-60 = system: HL-60
NCI-H23 = system: NCI-H23
SR = system: SR
TK-10 = system: TK-10
EKVX = system: EKVX
OVCAR-3 = system: OVCAR-3
SN12C = system: SN12C
SK-MEL-28 = system: SK-MEL-28
SNB-19 = system: SNB-19
COLO 205 = system: COLO 205

Measured: GI50

C/C(CCn1[nH]c(=O)ccc1=O)=N\N=C(N)N
inactive: A498 > 100 µM | SF-295 > 100 µM | SK-MEL-2 > 100 µM | M19-MEL > 100 µM | LOX IMVI > 100 µM | UACC-62 > 100 µM | NCI-H460 > 100 µM | HL-60 > 100 µM | NCI-H23 > 100 µM | SR > 100 µM | TK-10 > 100 µM | EKVX > 100 µM | OVCAR-3 > 100 µM | SN12C > 100 µM | SK-MEL-28 > 100 µM | SNB-19 > 100 µM

O=C(O/N=C1/CCCC/C1=C\c1ccccc1)c1ccc(Cl)c(Cl)c1
inactive: SF-295 31.8 µM | SK-MEL-2 > 100 µM | M19-MEL 68.7 µM | LOX IMVI 20 µM | UACC-62 17.1 µM | NCI-H460 40.3 µM | HL-60 14.5 µM | NCI-H23 19.2 µM | SR 8.2 µM | TK-10 23.2 µM | EKVX 38.3 µM | COLO 205 28.2 µM | OVCAR-3 21 µM | SN12C 49.8 µM | SK-MEL-28 18.3 µM | SNB-19 69.7 µM

CC(C)(C)C1CC[C@H]2c3c([nH]c4ccccc34)[C@H]3C(=O)N(c4ccc(F)cc4)C(=O)[C@H]3[C@H]2C1 (some centres not stated)
inactive: A498 29.9 µM | SF-295 14.8 µM | SK-MEL-2 15.8 µM | M19-MEL 17.1 µM | LOX IMVI 20.3 µM | UACC-62 15.5 µM | NCI-H460 13.6 µM | NCI-H23 18.6 µM | TK-10 16.3 µM | EKVX 16.3 µM | COLO 205 14.5 µM | OVCAR-3 16.7 µM | SN12C 11.1 µM | SK-MEL-28 23.6 µM | SNB-19 15.9 µM

O=C1OC(c2ccccc2)=N/C1=C\c1ccc(Oc2ccc(Cl)c(Cl)c2)cc1
inactive: A498 > 100 µM | SF-295 76.4 µM | SK-MEL-2 50.5 µM | M19-MEL 36.9 µM | UACC-62 26.2 µM | NCI-H460 71.4 µM | HL-60 27.9 µM | NCI-H23 35.4 µM | SR 21.7 µM | TK-10 > 100 µM | EKVX 45.1 µM | COLO 205 > 100 µM | SN12C 51.1 µM | SK-MEL-28 > 10 µM | SNB-19 35.5 µM

OCC(O)CNc1ccnc2cc(Cl)ccc12 (configuration not stated)
inactive: A498 > 100 µM | SF-295 > 100 µM | SK-MEL-2 > 100 µM | M19-MEL > 100 µM | LOX IMVI > 100 µM | UACC-62 > 100 µM | NCI-H460 > 100 µM | HL-60 > 100 µM | NCI-H23 > 100 µM | SR > 100 µM | TK-10 > 100 µM | EKVX > 100 µM | COLO 205 > 100 µM | OVCAR-3 > 100 µM | SN12C > 100 µM | SK-MEL-28 > 100 µM | SNB-19 > 100 µM

CC(C)CCCC(C)C1CCC2C3CC([N+](=O)[O-])=C4CC(O)CCC4(C)C3CCC12C (configuration not stated)
inactive: A498 21.8 µM | SF-295 14.2 µM | SK-MEL-2 12.4 µM | M19-MEL 27.6 µM | LOX IMVI 19.6 µM | UACC-62 19.9 µM | HL-60 25 µM | NCI-H23 22.7 µM | SR 15 µM | TK-10 21 µM | EKVX 27 µM | COLO 205 24.3 µM | OVCAR-3 23.9 µM | SN12C 18.2 µM | SK-MEL-28 13.7 µM

COc1cc(C=O)c(-c2c(C=O)ccc3c2OCO3)c(OC)c1OC
inactive: A498 > 100 µM | SF-295 60.4 µM | SK-MEL-2 > 100 µM | M19-MEL 61.4 µM | LOX IMVI 54.6 µM | UACC-62 62.5 µM | NCI-H460 > 100 µM | HL-60 26.7 µM | NCI-H23 > 100 µM | SR 29.6 µM | TK-10 > 100 µM | EKVX > 100 µM | COLO 205 64.9 µM | OVCAR-3 72.6 µM | SN12C > 100 µM | SK-MEL-28 74.6 µM | SNB-19 49.8 µM

O=C(c1ccccc1)C(C(=O)c1ccccc1)C1(O)C(=O)c2ccccc2C1=O
inactive: A498 47.4 µM | SF-295 28.2 µM | SK-MEL-2 6.17 µM | M19-MEL 16.6 µM | LOX IMVI 32.4 µM | UACC-62 32.6 µM | HL-60 16.7 µM | NCI-H23 28.6 µM | SR 29.1 µM | TK-10 3.01 µM | EKVX 32.5 µM | COLO 205 45.4 µM | OVCAR-3 26.6 µM | SN12C 27.8 µM | SK-MEL-28 3.6 µM | SNB-19 37.3 µM

O=S(=O)(c1cccc(N=C=S)c1)c1cccc(N=C=S)c1
inactive: SF-295 19.5 µM | SK-MEL-2 18.5 µM | M19-MEL > 10 µM | LOX IMVI 17.7 µM | UACC-62 19.1 µM | NCI-H460 > 10 µM | HL-60 21.7 µM | NCI-H23 17.1 µM | TK-10 20 µM | EKVX > 100 µM | COLO 205 19.5 µM | OVCAR-3 11.6 µM | SN12C 22 µM | SK-MEL-28 18.2 µM | SNB-19 64.1 µM

Cn1c(NC(=O)NC23CC4CC(CC(C4)C2)C3)nc2ccccc21
inactive: SF-295 12.6 µM | SK-MEL-2 71.3 µM | M19-MEL 57.5 µM | LOX IMVI > 100 µM | UACC-62 40.1 µM | NCI-H460 38.4 µM | HL-60 > 100 µM | NCI-H23 > 100 µM | SR > 100 µM | TK-10 39.5 µM | EKVX 83.8 µM | COLO 205 > 100 µM | OVCAR-3 > 100 µM | SN12C 68.5 µM | SK-MEL-28 96.4 µM | SNB-19 95.1 µM

O=C(O/N=C1/CCC/C1=C\c1ccccc1)c1ccc(Cl)c(Cl)c1
inactive: A498 > 100 µM | SF-295 > 100 µM | SK-MEL-2 > 100 µM | M19-MEL > 100 µM | LOX IMVI > 100 µM | UACC-62 > 100 µM | NCI-H460 > 100 µM | HL-60 > 100 µM | NCI-H23 > 100 µM | SR > 100 µM | TK-10 > 100 µM | EKVX > 100 µM | COLO 205 > 100 µM | OVCAR-3 > 100 µM | SN12C > 100 µM | SK-MEL-28 > 100 µM

COc1ccccc1NC(=O)C1=C(C)NC(C)=C(C(=O)Nc2ccccc2OC)C1c1ccccc1[N+](=O)[O-]
inactive: SF-295 32.4 µM | SK-MEL-2 11.4 µM | M19-MEL 18.5 µM | LOX IMVI 15.5 µM | UACC-62 21.3 µM | NCI-H460 16.1 µM | HL-60 20.2 µM | NCI-H23 16.8 µM | SR 11.5 µM | TK-10 22.5 µM | EKVX 64.1 µM | COLO 205 16.9 µM | OVCAR-3 18.5 µM | SN12C 16.6 µM | SK-MEL-28 17.5 µM

Nc1ccc(C(=O)NN2C(=O)C(Cl)C2c2cc(Br)cc(Br)c2O)cc1 (configuration not stated)
inactive: SF-295 10.3 µM | SK-MEL-2 10.6 µM | M19-MEL 11.9 µM | LOX IMVI 8.85 µM | UACC-62 4.44 µM | NCI-H460 3.4 µM | HL-60 1.31 µM | NCI-H23 12.4 µM | SR 24.3 µM | TK-10 32.2 µM | EKVX 4.62 µM | COLO 205 48.1 µM | OVCAR-3 2.43 µM | SK-MEL-28 22.9 µM | SNB-19 34.1 µM

O=[N+]([O-])c1ccc(C2=NN(c3ccccc3)C[N+](c3ccc(Br)cc3)=N2)cc1
inactive: A498 > 100 µM | SF-295 75.5 µM | SK-MEL-2 > 100 µM | M19-MEL > 100 µM | UACC-62 > 100 µM | NCI-H460 > 100 µM | NCI-H23 70.6 µM | SR 96.8 µM | TK-10 > 100 µM | EKVX > 100 µM | COLO 205 > 100 µM | SN12C > 100 µM | SK-MEL-28 > 100 µM | SNB-19 > 100 µM

c1cnn(CN(Cn2cccn2)Cn2cccn2)c1
inactive: A498 > 100 µM | SF-295 > 100 µM | SK-MEL-2 > 100 µM | M19-MEL > 100 µM | LOX IMVI > 100 µM | UACC-62 35.9 µM | NCI-H460 > 100 µM | HL-60 > 100 µM | NCI-H23 > 100 µM | SR > 100 µM | TK-10 > 100 µM | EKVX > 100 µM | COLO 205 > 100 µM | OVCAR-3 > 100 µM | SN12C > 100 µM | SK-MEL-28 > 100 µM | SNB-19 > 100 µM

CN(C)c1ccc2c(c1)C(=O)N(OS(=O)(=O)c1ccc([N+](=O)[O-])cc1)C2=O
inactive: A498 59.7 µM | SF-295 25.2 µM | SK-MEL-2 29.2 µM | M19-MEL 19 µM | UACC-62 17.1 µM | NCI-H460 49.3 µM | HL-60 28.6 µM | NCI-H23 26.2 µM | SR 22.4 µM | TK-10 59 µM | EKVX 42.7 µM | COLO 205 24.3 µM | OVCAR-3 > 10 µM | SN12C 22.5 µM | SK-MEL-28 26.1 µM | SNB-19 41.7 µM

Cc1cc(C)cc(Sc2c([N+](=O)[O-])ncn2C)c1
inactive: A498 20.9 µM | SF-295 21.9 µM | SK-MEL-2 10.6 µM | M19-MEL 22.6 µM | LOX IMVI 11.5 µM | UACC-62 15.5 µM | NCI-H460 18.2 µM | NCI-H23 14.8 µM | SR 10.5 µM | TK-10 23 µM | EKVX 27.7 µM | COLO 205 12.4 µM | OVCAR-3 13 µM | SN12C 16.4 µM | SK-MEL-28 15.2 µM | SNB-19 25.7 µM
